Results on four molecules are retold here after ChEMBL document CHEMBL3085700 (J Med Chem, 2013).

The source made the active and inactive calls. The calls are words filed in the database; no cut-off is given here.

Assay [1] concerns the target T1, Fatty-acid amide hydrolase 1 (Homo sapiens, UniProt O00519).
T1 sequence (O00519 whole entry): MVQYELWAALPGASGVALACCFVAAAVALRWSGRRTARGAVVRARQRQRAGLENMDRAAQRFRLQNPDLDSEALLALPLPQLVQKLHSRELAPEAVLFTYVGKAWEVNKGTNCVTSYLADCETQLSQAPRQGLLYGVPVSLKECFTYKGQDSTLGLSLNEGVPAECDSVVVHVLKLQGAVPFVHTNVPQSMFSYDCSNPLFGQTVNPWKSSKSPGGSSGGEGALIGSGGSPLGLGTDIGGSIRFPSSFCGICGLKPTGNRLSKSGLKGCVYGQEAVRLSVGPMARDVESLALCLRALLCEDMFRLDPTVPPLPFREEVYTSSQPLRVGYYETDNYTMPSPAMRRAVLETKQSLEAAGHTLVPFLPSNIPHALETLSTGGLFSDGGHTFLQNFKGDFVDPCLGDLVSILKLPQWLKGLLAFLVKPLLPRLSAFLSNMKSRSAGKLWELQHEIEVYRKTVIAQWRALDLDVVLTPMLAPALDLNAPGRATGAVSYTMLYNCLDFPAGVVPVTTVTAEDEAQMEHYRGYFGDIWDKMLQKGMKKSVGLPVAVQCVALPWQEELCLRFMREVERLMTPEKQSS
In words: Inhibition of human recombinant FAAH overexpressed in African green monkey COS7 cells using [3H]-anandamide as substrate preincubated for 10 mins before substrate addition measured after 10 mins by liquid scintillation counting analysis. It is filed as cell-based, COS-7.

In the next assay the target is T2, Monoglyceride lipase (Homo sapiens, UniProt Q99685).
T2 sequence (Q99685 whole entry): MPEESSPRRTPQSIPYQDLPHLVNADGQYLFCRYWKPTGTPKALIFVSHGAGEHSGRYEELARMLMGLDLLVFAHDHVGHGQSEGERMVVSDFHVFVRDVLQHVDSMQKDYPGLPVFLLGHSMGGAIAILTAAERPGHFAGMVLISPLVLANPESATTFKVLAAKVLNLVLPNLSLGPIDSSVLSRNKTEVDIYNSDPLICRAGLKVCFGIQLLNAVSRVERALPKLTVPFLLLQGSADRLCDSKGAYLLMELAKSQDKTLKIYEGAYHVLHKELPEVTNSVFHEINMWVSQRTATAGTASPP
In words: Inhibition of human recombinant MAGL overexpressed in HEK cells using 2-AG as substrate preincubated for 10 mins before substrate addition measured after 10 mins by HPLC analysis. Particulars: read-out: IC50. It is filed as cell-based, HEK293.

In assay [2] the target is T3, Fatty-acid amide hydrolase 1 (Rattus norvegicus, UniProt P97612).
T3 sequence (P97612 whole entry): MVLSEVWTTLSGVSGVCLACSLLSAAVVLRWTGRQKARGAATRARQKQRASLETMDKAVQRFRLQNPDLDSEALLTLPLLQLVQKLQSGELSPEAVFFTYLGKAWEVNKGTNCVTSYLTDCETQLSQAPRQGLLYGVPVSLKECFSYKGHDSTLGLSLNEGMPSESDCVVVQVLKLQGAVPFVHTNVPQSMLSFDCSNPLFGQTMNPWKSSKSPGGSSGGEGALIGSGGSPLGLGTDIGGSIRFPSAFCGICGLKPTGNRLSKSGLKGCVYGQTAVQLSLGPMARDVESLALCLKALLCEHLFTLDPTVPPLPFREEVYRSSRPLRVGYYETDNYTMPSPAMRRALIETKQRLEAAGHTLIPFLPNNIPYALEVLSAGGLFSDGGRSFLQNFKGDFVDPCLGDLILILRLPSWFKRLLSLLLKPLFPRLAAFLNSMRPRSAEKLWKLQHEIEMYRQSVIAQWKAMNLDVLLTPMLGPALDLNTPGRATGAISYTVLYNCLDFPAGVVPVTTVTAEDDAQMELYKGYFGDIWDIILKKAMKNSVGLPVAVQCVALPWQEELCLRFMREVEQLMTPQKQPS
In words: Inhibition of FAAH in rat RBL2H3 cells assessed as blockade of [3H]-anandamide uptake incubated for 15 mins prior to [3H]-anandamide addition measured after 10 mins by scintillation spectroscopic analysis. It is filed as cell-based, RBL-2H3.

Assay [3] deals with T4, Fatty-acid amide hydrolase 1 (Rattus norvegicus) (UniProt P97612).
T4 sequence (whole entry): T3 sequence (P97612 whole entry)
In words: Inhibition of FAAH in rat RBL2H3 cells assessed as blockade of [3H]-anandamide uptake at 1 uM incubated for 15 mins prior to [3H]-anandamide addition measured after 10 mins by scintillation spectroscopic analysis. Particulars: RBL-2H3. It is filed as cell-based.

The target in assay [4] is T5, Monoacylglycerol lipase ABHD6 (Homo sapiens) (UniProt Q9BV23).
T5 sequence (whole entry): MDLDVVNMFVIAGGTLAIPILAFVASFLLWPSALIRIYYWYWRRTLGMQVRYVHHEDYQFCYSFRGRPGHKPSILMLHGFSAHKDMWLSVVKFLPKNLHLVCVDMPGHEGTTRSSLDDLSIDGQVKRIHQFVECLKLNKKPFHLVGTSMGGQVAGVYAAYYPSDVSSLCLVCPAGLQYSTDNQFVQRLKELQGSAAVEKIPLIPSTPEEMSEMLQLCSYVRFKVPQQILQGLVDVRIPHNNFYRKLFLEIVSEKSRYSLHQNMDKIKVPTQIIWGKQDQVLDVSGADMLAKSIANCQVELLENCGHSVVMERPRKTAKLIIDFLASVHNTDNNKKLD
Briefly: Inhibition of human ABHD6 overexpressed in HEK293 cells assessed as 2-AG hydrolysis at 1 uM by fluorescent glycerol assay. It is filed as cell-based.

Assay [5] concerns the target T6, Lysophosphatidylserine lipase ABHD12 (Homo sapiens) (UniProt Q8N2K0).
T6 sequence (whole entry): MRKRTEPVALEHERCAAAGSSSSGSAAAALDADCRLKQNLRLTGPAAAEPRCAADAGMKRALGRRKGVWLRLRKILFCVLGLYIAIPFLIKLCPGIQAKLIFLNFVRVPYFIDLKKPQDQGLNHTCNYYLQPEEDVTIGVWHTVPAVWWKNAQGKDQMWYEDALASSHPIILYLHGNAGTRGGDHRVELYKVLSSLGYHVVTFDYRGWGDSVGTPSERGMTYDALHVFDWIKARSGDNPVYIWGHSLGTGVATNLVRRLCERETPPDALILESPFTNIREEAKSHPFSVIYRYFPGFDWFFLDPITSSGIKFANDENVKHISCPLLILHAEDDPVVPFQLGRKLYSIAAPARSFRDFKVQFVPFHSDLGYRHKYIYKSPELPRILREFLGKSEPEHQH
In words: Inhibition of human ABHD12 overexpressed in HEK293 cells assessed as 2-AG hydrolysis at 1 uM by fluorescent glycerol assay. The class given is cell-based.

Assay [6] concerns the target T4, Fatty-acid amide hydrolase 1 (Rattus norvegicus). In words: Inhibition of FAAH in rat RBL2H3 cells assessed as blockade of [3H]-anandamide uptake at 0.0001 to 1 uM incubated for 15 mins prior to [3H]-anandamide addition measured after 10 mins by scintillation spectroscopic analysis in presence of JJKK-048. The class given is cell-based. Conditions: RBL-2H3.
Assay [7] addresses T7, Fatty-acid amide hydrolase 1 (Mus musculus) (UniProt O08914).
T7 sequence (whole entry): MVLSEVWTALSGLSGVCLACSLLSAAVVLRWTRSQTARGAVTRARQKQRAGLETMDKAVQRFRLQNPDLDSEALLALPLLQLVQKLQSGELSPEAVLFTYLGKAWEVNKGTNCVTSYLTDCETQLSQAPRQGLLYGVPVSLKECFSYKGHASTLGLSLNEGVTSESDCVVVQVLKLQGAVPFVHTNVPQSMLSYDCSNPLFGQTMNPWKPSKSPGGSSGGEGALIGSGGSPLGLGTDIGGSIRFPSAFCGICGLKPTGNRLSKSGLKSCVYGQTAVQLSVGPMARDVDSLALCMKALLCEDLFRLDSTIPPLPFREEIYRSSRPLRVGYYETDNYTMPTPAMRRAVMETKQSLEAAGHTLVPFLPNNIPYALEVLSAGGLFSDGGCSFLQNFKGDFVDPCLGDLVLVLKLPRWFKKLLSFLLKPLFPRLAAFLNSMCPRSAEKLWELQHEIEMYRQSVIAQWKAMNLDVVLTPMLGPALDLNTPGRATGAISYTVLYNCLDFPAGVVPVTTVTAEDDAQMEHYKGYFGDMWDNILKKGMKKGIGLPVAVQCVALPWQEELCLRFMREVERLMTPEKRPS
Conditions: Brain, Membrane, 10 uM.
Description: Inhibition of TAMRA-FP-labeled FAAH in mouse brain membrane at 10 uM after 1 hr by fluorescent gel scanning assay

In assay [8] the target is T8, Fatty-acid amide hydrolase 1 (Homo sapiens) (UniProt O00519).
T8 sequence (whole entry): T1 sequence (O00519 whole entry)
In words: Reversible inhibition of human recombinant FAAH overexpressed in African green monkey COS7 cells using […] as substrate assessed as recovery of enzyme activity at 20 x IC50 preincubated for 60 mins followed by 500 fold dilution measured after 10 mins by HPLC analysis. The class given is cell-based. Conditions: COS-7.

In assay [9] the target is T8, Fatty-acid amide hydrolase 1 (Homo sapiens). In words: Inhibition of human recombinant FAAH overexpressed in African green monkey COS7 cells using [3H]-anandamide as substrate at 30 uM preincubated for 10 to 60 mins by liquid scintillation counting analysis. Particulars: COS-7.
Assay [10] has the same target. Briefly: Inhibition of human recombinant FAAH overexpressed in African green monkey COS7 cells using [3H]-anandamide as substrate at 300 uM preincubated for 10 to 60 mins by liquid scintillation counting analysis. It is filed as cell-based. Particulars: COS-7.

As to `COc1nn(C(C)c2ccc(N(c3ccccc3)c3ccccc3)cc2)c(=O)o1` (racemic), the IC50 in assay [1] (read-out: IC50) is 120 nM; in assay [1] (read-out: pIC50 (converted)), 115 nM; on Monoglyceride lipase, 630 nM; in assay [2], 11 nM. Further, the inhibition entry in assay [3] and in assay [6] was “Active” throughout. The inhibition entry in assay [4] and in [5] was “inactive” throughout.

As for `O=C(Oc1ccc([N+](=O)[O-])cc1)N1CCN(Cc2cccc(Oc3ccccc3)c2)CC1`, the inhibition result in assay [7] is “Active”.

For `CCCCCCCCCCCC(=O)c1nc2ncccc2o1`, the IC50 in assay [1] (read-out: IC50) was 17 nM; in assay [1] (read-out: pIC50 (converted)), 16.6 nM. For the same molecule, in assay [8], the inhibition result is “Active”. In addition, the inhibition entry in assay [9] was “inactive”.

`O=C(Nc1ccccc1)N1CCC(Cc2ccc3ccccc3n2)CC1`: the IC50 was 320 nM in assay [1] (read-out: IC50) and 324 nM in assay [1] (read-out: pIC50 (converted)). In addition, the inhibition entry in [8] was “inactive”. For the same molecule, the inhibition result in assay [10] is “Active”.
